For 28 compounds, EC50 results are on record in patent US10584115B2, “Substituted pyridine and pyrazine BMI-1 inhibitors” (PTC Therapeutics, Inc., priority 2013, dated 2020).

Usually EC50 stands for the concentration giving half of the maximal effect.

One test deals with Bmi-1 protein. The experiment in a line: Sandwich ELISA Assay (Bmi-1 protein level in HT-1080 cells after compound treatment). To be noted: Table 1, Bmi-1 sandwich ELISA, read-out: ELISA EC50 value for Bmi-1 protein. In kind it is cell-based. The method in brief: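 Sandwich ELISA quantified Bmi-1 protein against recombinant standard (125–8000 pg/mL), with lysates captured overnight at 4 °C and signal by HRP/TMB at 450 nm (570 nm reference). Lysates came from HT-1080 cells incubated 40–48 h with test compounds in 0.5% DMSO.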
Regarding `Cc1nc2ccc(O)cn2c1-c1cc(C#N)cc(Nc2ccc(C(F)(F)F)cc2)n1` [compound 381, 2-(6-hydroxy-2-methylimidazo[1,2-a]pyridin-3-yl)-6-{[4-(trifluoromethyl)phenyl]amino}pyridine-4-carbonitrile], the EC50 lay within 0.01 to 0.1 µM.

Consider `Cc1ccc(Nc2cc(N)cc(-n3c(C)nc4ccccc43)n2)cc1` [compound 632, 6-(2-methyl-1H-benzimidazol-1-yl)-N^2-(4-methylphenyl)pyridine-2,4-diamine], for which the EC50 was 0.001 to 0.01 µM. Regarding `Cc1nc2cc(F)c(F)cc2n1-c1cncc(Nc2ccc(N3CCOCC3)nc2)n1` [compound 423, 6-(5,6-difluoro-2-methyl-1H-benzimidazol-1-yl)-N-[6-(morpholin-4-yl)pyridin-3-yl]pyrazin-2-amine], the EC50 lay within 0.01 to 0.1 µM. On the same count and under the same terms, next, `Cc1nc2ncccc2n1-c1cncc(Nc2ccc(OC(F)F)c(F)c2)n1` [compound 325]: 0.01 to 0.1 µM; `CCCc1nc2ccccc2n1-c1cncc(Nc2ccc(C(F)(F)F)cc2)n1` [compound 53, 6-(2-propyl-1H-benzimidazol-1-yl)-N-[4-(trifluoromethyl)phenyl]pyrazin-2-amine]: 0.01 to 0.1 µM. On to `C=Cc1ccc(Nc2cncc(-n3c(C)nc4ccccc43)n2)cc1` [compound 666, N-(4-ethenylphenyl)-6-(2-methyl-1H-benzimidazol-1-yl)pyrazin-2-amine], for which the EC50 is 0.1 to 3 µM. Still for that read-out and setting: the same measure for `COc1cc(Nc2ccc(C(F)(F)F)cc2)nc(-c2c(C(F)(F)F)nc3ccccn23)c1` [Cpd 107, 4-methoxy-6-[2-(trifluoromethyl)imidazo[1,2-a]pyridin-3-yl]-N-[4-(trifluoromethyl)phenyl]pyridin-2-amine]: 0.1 to 3 µM. `Cc1nc2ccccc2n1-c1cc(N)cc(Nc2ccc(OC(F)F)cc2)n1` [compound 496, N^2-[4-(difluoromethoxy)phenyl]-6-(2-methyl-1H-benzimidazol-1-yl)pyridine-2,4-diamine]: the EC50 is 0.01 to 0.1 µM. On the same count and under the same terms, the same measure for `COc1ccc2nc(C)n(-c3cncc(Nc4ccc(C(F)(F)F)cc4)n3)c2c1` [compound 317, 6-(6-methoxy-2-methyl-1H-benzimidazol-1-yl)-N-[4-(trifluoromethyl)phenyl]pyrazin-2-amine]: 0.01 to 0.1 µM; for `Nc1ccc(Nc2cncc(-c3c(C(F)(F)F)nc4ccccn34)n2)cc1` [Cpd 60, N-{6-[2-(trifluoromethyl)imidazo[1,2-a]pyridin-3-yl]pyrazin-2-yl}benzene-1,4-diamine]: 0.01 to 0.1 µM.

For `Cc1ccc(Nc2cncc(-n3c(C)nc4cc(F)c(F)cc43)n2)cc1` [compound 574, 6-(5,6-difluoro-2-methyl-1H-benzimidazol-1-yl)-N-(4-methylphenyl)pyrazin-2-amine], the EC50 fell in the range of 0.1 to 3 µM. Regarding `Fc1ccc(Nc2cncc(-c3c(C(F)(F)F)nc4ccc(F)cn34)n2)cc1` [compound 669, N-(4-fluorophenyl)-6-[6-fluoro-2-(trifluoromethyl)imidazo[1,2-a]pyridin-3-yl]pyrazin-2-amine], the EC50 is 0.1 to 3 µM. Same read-out and setting: next, `Fc1cc(Nc2cncc(-c3c(C(F)(F)F)nc4ccccn34)n2)ccc1Cl` [Cpd 25, N-(4-chloro-3-fluorophenyl)-6-[2-(trifluoromethyl)imidazo[1,2-a]pyridin-3-yl]pyrazin-2-amine]: 0.001 to 0.01 µM; `Nc1cc(Nc2ccc(C(F)(F)F)cc2)nc(-n2c(C3CC3)nc3cc(F)c(F)cc32)c1` [compound 504, 6-(2-cyclopropyl-5,6-difluoro-1H-benzimidazol-1-yl)-N^2-[4-(trifluoromethyl)phenyl]pyridine-2,4-diamine]: 0.01 to 0.1 µM; `CCc1nc2cc(F)c(F)cc2n1-c1cncc(Nc2ccc(C(F)(F)F)cc2)n1` [compound 177, 6-(2-ethyl-5,6-difluoro-1H-benzimidazol-1-yl)-N-[4-(trifluoromethyl)phenyl]pyrazin-2-amine]: 0.01 to 0.1 µM. Consider `FC(F)(F)Oc1ccc(Nc2cncc(-c3c(C(F)(F)F)nc4ccccn34)n2)cc1` [Cpd 11, N-[4-(trifluoromethoxy)phenyl]-6-[2-(trifluoromethyl)imidazo[1,2-a]pyridin-3-yl]pyrazin-2-amine], for which the EC50 was 0.01 to 0.1 µM.

Take `Cc1nc2ccccc2n1-c1cncc(Nc2ccc(OCC(F)(F)F)cc2)n1` [compound 306, 6-(2-methyl-1H-benzimidazol-1-yl)-N-[4-(2,2,2-trifluoroethoxy)phenyl]pyrazin-2-amine]: the EC50 fell in the range of 0.1 to 3 µM. Consider `Cc1nc2ccc(F)cc2n1-c1c[n+]([O-])cc(Nc2ccc(C(F)(F)F)cc2)n1` [compound 532, 6-(6-fluoro-2-methyl-1H-benzimidazol-1-yl)-N-[4-(trifluoromethyl)phenyl]pyrazin-2-amine 4-oxide], for which the EC50 lay in the range of 0.01 to 0.1 µM. Take `Cc1nc2ccccc2n1-c1cncc(Nc2ccc(C(C)O)cc2)n1` (stereo not shown) [compound 155, 1-(4-{[6-(2-methyl-1H-benzimidazol-1-yl)pyrazin-2-yl]amino}phenyl)ethanol]: the EC50 was in the range of 0.01 to 0.1 µM. As for `Cc1nc2ccccc2n1-c1cncc(Nc2ccc(C(F)(F)F)c(N)c2)n1` [compound 506, N^1-[6-(2-methyl-1H-benzimidazol-1-yl)pyrazin-2-yl]-4-(trifluoromethyl)benzene-1,3-diamine], the EC50 fell in the range of 0.01 to 0.1 µM. The same measure, in the same setting: next, `Cc1nc2ccccc2n1-c1cc(F)cc(Nc2ccc(C(F)(F)F)cc2)n1` [Cpd 494, 4-fluoro-6-(2-methyl-1H-benzimidazol-1-yl)-N-[4-(trifluoromethyl)phenyl]pyridin-2-amine]: 0.01 to 0.1 µM. Still for that read-out and setting: the same measure for `CSc1ccc(Nc2cncc(-c3c(C(F)(F)F)nc4ccccn34)n2)cc1` [compound 69, N-[4-(methylsulfanyl)phenyl]-6-[2-(trifluoromethyl)imidazo[1,2-a]pyridin-3-yl]pyrazin-2-amine]: 0.001 to 0.01 µM. Regarding `Cc1nc2c(F)cc(F)cc2n1-c1cc(C#N)cc(Nc2ccc(C(F)(F)F)cc2)n1` [Cpd 447, 2-(4,6-difluoro-2-methyl-1H-benzimidazol-1-yl)-6-{[4-(trifluoromethyl)phenyl]amino}pyridine-4-carbonitrile], the EC50 was 0.01 to 0.1 µM. For the compound `N#Cc1ccc(Nc2cccc(-c3c(C(F)(F)F)nc4ccccn34)n2)cc1` [Cpd 50, 4-({6-[2-(trifluoromethyl)imidazo[1,2-a]pyridin-3-yl]pyridin-2-yl}amino)benzonitrile], the EC50 lay in the range of 0.01 to 0.1 µM.

For the compound `Cc1ccc(Nc2cncc(-c3c(C(F)(F)F)nn4ccccc34)n2)cc1` [compound 75, N-(4-methylphenyl)-6-[2-(trifluoromethyl)pyrazolo[1,5-a]pyridin-3-yl]pyrazin-2-amine], the EC50 was in the range of 0.001 to 0.01 µM.

As for `Cc1nc2cc(F)c(F)cc2n1-c1cc(C#N)cc(Nc2ccc(OC(F)(F)F)cc2)n1` [compound 243, 2-(5,6-difluoro-2-methyl-1H-benzimidazol-1-yl)-6-{[4-(trifluoromethoxy)phenyl]amino}pyridine-4-carbonitrile], the EC50 lay in the range of 0.1 to 3 µM.

Staying with this test, now noted: read-out: ELISA EC50 value for Bmi-1 protein, Table 1, Bmi-1 sandwich ELISA.
Take `Cc1ccc(-c2c(C(F)(F)F)nc3ccccn23)nc1Nc1ccc(C(F)(F)F)cc1` [compound 269, 3-methyl-6-[2-(trifluoromethyl)imidazo[1,2-a]pyridin-3-yl]-N-[4-(trifluoromethyl)phenyl]pyridin-2-amine]: the EC50 was 0.1 to 3 µM.

On to `Cc1nn2ccccc2c1-c1cncc(Nc2ccc(C(F)(F)F)cc2)n1` [compound 497, 6-(2-methylpyrazolo[1,5-a]pyridin-3-yl)-N-[4-(trifluoromethyl)phenyl]pyrazin-2-amine], for which the EC50 lay in the range of 0.001 to 0.01 µM.
